Drawing on the METLIN SMRT retention time set (Domingo-Almenara et al. 2019), this text covers RP-LC retention time for 80 compounds.

The series is described as follows: gradient 5% acetonitrile 3 min, to 50% in 2 min, to 85% in 15 min, held 3 min, 100 µL/min. As to conditions: column: Zorbax Extend-C18 2.1 x 50 mm; eluents: water / acetonitrile, 0.1% formic acid. In short, it runs like this:
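Mixtures of ~100 pure standards were chromatographed on a Zorbax Extend-C18 column (2.1 × 50 mm, 1.8 μm) at 100 μL/min using water and acetonitrile, each with 0.1% formic acid. Detection used a quadrupole time-of-flight mass spectrometer in positive and negative ionization mode, and data collection spanned 3 months. Retention time was obtained from adduct peaks picked computationally and each checked manually.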
On to `Cc1nc(CSc2nnc3ccc(-c4cccnc4)nn23)cs1`, for which the RP-LC retention time is 577 s.

`Cc1ccc(-n2nc(C)c3sc(N4CCCC(C(=O)NC(C)c5ccccc5)C4)nc32)cc1` (stereo not given): the RP-LC retention time amounted to 1190 s.

`Cc1cccc(NC(=O)N2CCC(n3cnc4c(Cl)cccc4c3=O)CC2)c1` showed an RP-LC retention time of 877 s.

With `O=S(=O)(Nc1cccn2ncnc12)c1ccc(Cl)cc1`, the RP-LC retention time was determined as 770 s.

`Cc1ccccc1OCc1nc(CCN(C)C(=O)Cc2cccs2)no1` had an RP-LC retention time of 924 s.

`Cc1ccc(N2CC(c3noc(-c4ccsc4)n3)CC2=O)cc1` (stereo not given) gave an RP-LC retention time of 932 s.

As for `Cc1cccc(NC(=O)c2cn(C)nc2S(=O)(=O)N2CCSCC2)c1`, the RP-LC retention time was determined as 941 s.

`CCNc1ncnc2sc3c(c12)CCN(S(=O)(=O)c1ccccc1)C3` showed an RP-LC retention time of 805 s.

Compound `Cc1cccc(NC(=O)NC2CCN(c3ccccc3)C2=O)c1` (stereo not given) showed an RP-LC retention time of 814 s.

`COc1ccc(OC)c(CNC(=O)CN2C(=O)C(C)(C)c3cc(C)ccc32)c1` came in with an RP-LC retention time of 689 s.

`Cc1ccc(CNC(=O)CN2C(=O)C3CCCCN3c3ccc(S(=O)(=O)N(C)C)cc32)o1` (stereo not given) displayed an RP-LC retention time of 867 s.

As for `O=C(NC1CC1)c1[nH]c2ccccc2c1N1CCCC1=O`, the RP-LC retention time was determined as 653 s.

For the compound `CCN(CC)CCNC(=O)Cn1ncc2c3ccccc3n(C)c2c1=O`, the RP-LC retention time is 697 s.

On to `O=S(=O)(c1ccc2c(c1)CCC2)N1CCCC(Cn2c(C3CC3)nc3cccnc32)C1` (stereo not given), for which the RP-LC retention time stood at 775 s.

Turning to `COc1ccc2cc(C(=O)N3CCN(c4cc(=O)n(C(C)C)c(=O)n4C(C)C)CC3)[nH]c2c1`, the RP-LC retention time came to 909 s.

On to `CN(C)C(=O)c1n[nH]c2c1CN(C(=O)c1ccccc1C(F)(F)F)CC2`, for which the RP-LC retention time turned out to be 725 s.

`CNC(=O)[C@@H]1CN(S(=O)(=O)C(C)C)C[C@H]1c1n[nH]c(C)n1` registered an RP-LC retention time of 570 s.

`CCOC(=O)c1noc2nc(C)nc(Nc3cccc(F)c3)c12` had an RP-LC retention time of 1120 s.

As to `Cc1cn(C)c(CC(=O)N2CCCCCC2)c1C(=O)O`, the RP-LC retention time was 664 s.

`O=S(=O)(Nc1ccc(-c2ccc(N3CCCC3)nn2)cc1)c1ccc(Cl)s1` yielded an RP-LC retention time of 594 s.

On to `CN(CCc1noc(-c2ccc(F)cc2)n1)C(=O)COc1ccc(F)cc1`, for which the RP-LC retention time came to 889 s.

`CN(CCc1noc(-c2ccccc2)n1)C(=O)Nc1ccccc1Br` had an RP-LC retention time of 956 s.

Compound `Cc1cccnc1NC(=O)C1CCN(S(=O)(=O)c2ccc3c(c2)sc(=O)n3C(C)C)CC1` displayed an RP-LC retention time of 844 s.

With `O=C(CCN(CC1CCCO1)C(=O)c1ccc(C(F)(F)F)cc1)N1CCNCC1` (stereo not given), the RP-LC retention time is 628 s.

On to `O=C(NCCN1CCCCC1)c1ccc2c(=O)n(-c3ccccc3)c(N3CCCC3)nc2c1`, for which the RP-LC retention time came out at 614 s.

With `O=c1c2sccc2n(Cc2nc(-c3ccc(F)c(Cl)c3)no2)c(=O)n1CCc1ccccc1`, the RP-LC retention time was determined as 1230 s.

On to `CCc1nccn1Cc1noc(-c2ccccc2F)n1`, for which the RP-LC retention time was found to be 613 s.

For the compound `Cc1cc(N2CCN(C)CC2)nc2ccc(NC(=O)Nc3ccc(Cl)cc3)cc12`, the RP-LC retention time is 610 s.

Compound `CCOC(=O)c1ccc(NC(=O)Cn2c(=O)c(CCC(=O)NC)nc3ccccc32)cc1` registered an RP-LC retention time of 1260 s.

On to `O=C(Nc1ccccn1)C1CCN(S(=O)(=O)c2cc(-c3noc(C4CCC4)n3)cs2)CC1`, for which the RP-LC retention time came out at 893 s.

Consider `CNC(=O)c1cc(=O)[nH]c2c(C)cccc12`, for which the RP-LC retention time stood at 588 s.

`CC(C)n1c(=O)sc2cc(S(=O)(=O)N3CCC(C(=O)Nc4cccc(F)c4)CC3)ccc21`: the RP-LC retention time is 1010 s.

`O=C(Nc1ccccc1)C1CCCN(S(=O)(=O)Cc2ccc(Cl)cc2)C1` (stereo not given) registered an RP-LC retention time of 1010 s.

Take `O=C(NC1CCN(c2nnc3ccc(Cl)cn23)CC1)c1ccc(N2CCCC2=O)cc1`: the RP-LC retention time amounted to 651 s.

In the case of `O=S(=O)(Nc1ccc(F)c(F)c1)c1ccc2nncn2c1`, the RP-LC retention time came out at 694 s.

`CCn1cc(C(=O)NCCc2ccc(Cl)cc2)c(S(=O)(=O)N2CCSCC2)n1` displayed an RP-LC retention time of 935 s.

`COc1ccc(OC)c(NC(=O)Cn2nc3cc(-c4ccccc4)nc(C)n3c2=O)c1`: the RP-LC retention time worked out at 965 s.

Compound `Cc1nnc(-c2ccc3ccn(CC(=O)Nc4ccc(C)c(C)c4)c3c2)o1` displayed an RP-LC retention time of 882 s.

With `CCCc1c(C(=O)OCC)cnc2nc(-c3ccccc3)nn12`, the RP-LC retention time is 1120 s.

In turn, `Cc1ccc(NC(=O)Cn2ccc3ccc(-c4nnc(C)o4)cc32)cc1` came in with an RP-LC retention time of 824 s.

Compound `O=C(Nc1ccc(-c2nc3ccccc3[nH]2)cc1)c1cccs1` returned an RP-LC retention time of 579 s.

For the compound `N#Cc1nc(-c2ccco2)oc1N1CCN(C(=O)c2ccccc2F)CC1`, the RP-LC retention time is 770 s.

Regarding `CCOC(=O)c1nnc2c(-c3ccc(Cl)cc3)c(C)nn2c1N`, the RP-LC retention time was determined as 872 s.

The compound `CCn1cnc2ccc(-c3noc(-c4ccc(OC)c(F)c4)n3)cc21` showed an RP-LC retention time of 780 s.

Take `O=C(CN1c2ccc(F)cc2-c2ccccc2S1(=O)=O)NCc1ccccc1`: the RP-LC retention time came to 939 s.

Compound `O=C(NCc1ccc(F)cc1F)C1CCCN(c2ncnc3c2oc2ccccc23)C1` (stereo not given) showed an RP-LC retention time of 762 s.

`Cc1ccc(C)c(NC(=O)CSc2nncn2C)c1` came in with an RP-LC retention time of 618 s.

Take `CS(=O)(=O)N1CCC(C(=O)Nc2nnc(SCc3cc(F)ccc3F)s2)CC1`: the RP-LC retention time was 762 s.

`COc1cc(OC)c(NC(=O)Nc2c(-c3ccc(C)cc3)nc3ccccn23)cc1Cl` showed an RP-LC retention time of 721 s.

As for `COc1ccc(Br)c(C(=O)N2CCc3[nH]cnc3C23CCCC3)c1`, the RP-LC retention time worked out at 648 s.

Take `CCn1c(=O)sc2cc(S(=O)(=O)N3CCC(C(=O)Nc4ccccc4)CC3)ccc21`: the RP-LC retention time came to 878 s.

For `CC12CC(NC(=O)N1c1cccc(C(=O)NCc3ccccn3)c1)c1cc(Cl)ccc1O2` (stereo not given), the RP-LC retention time is 647 s.

Consider `O=C(c1ccc(-c2cccnc2)nc1)N1CCN(c2ccc(Cl)cc2)CC1`, for which the RP-LC retention time turned out to be 746 s.

The compound `Nc1nc(F)nc2c1ncn2[C@@H]1O[C@H](COP(=O)(O)O)[C@@H](O)[C@@H]1O` returned an RP-LC retention time of 534 s.

`Cc1csc(-c2ccc(N3CCN(C(=O)Cc4ccc(Cl)cc4)CC3)nc2)n1` returned an RP-LC retention time of 902 s.

Turning to `Cc1nnc(CNC(=O)C(=O)Nc2ccc(Cl)cn2)o1`, the RP-LC retention time amounted to 628 s.

In the case of `Cn1nc(C(=O)NCc2ccc3c(c2)OCO3)c2c1CCN(C(=O)COc1ccc(F)cc1)C2`, the RP-LC retention time was 765 s.

With `Cc1cccc(OCC(=O)NC2(c3nc(C)no3)CCCCC2)c1`, the RP-LC retention time is 951 s.

On to `CCCn1cc(CCNC(=O)Nc2cccc(Cl)c2F)c2cccnc21`, for which the RP-LC retention time was determined as 900 s.

For `Cc1noc([C@@H]2CC(F)(F)CN2C(=O)c2cnc[nH]2)n1`, the RP-LC retention time was found to be 582 s.

`Cc1ccc(S(=O)(=O)NCC(c2ccccc2)N(C)C)cc1` (stereo not given) registered an RP-LC retention time of 642 s.

With `O=C(NCC1CCCO1)C(=O)NCC(c1ccc2c(c1)OCO2)N1CCOCC1` (stereo not given), the RP-LC retention time worked out at 583 s.

On to `CCOC(=O)c1ccc(NC(=O)c2cc(C(C)C)n3nccc3n2)cc1`, for which the RP-LC retention time was 1170 s.

Turning to `CC(C)NC(=O)C1Cc2cc(C(F)(F)F)ccc2N2CCN(c3ccccc3Cl)CC12` (stereo not given), the RP-LC retention time was 1200 s.

In turn, `CCc1nc2cc(N3CCCC(C(=O)NCCN4CCN(C)CC4)C3)cnc2nc1CC` (stereo not given) returned an RP-LC retention time of 583 s.

For the compound `O=C1C2N=NN(Cc3nc(-c4ccc5c(c4)OCO5)no3)C2C(=O)N1c1ccc2c(c1)OCO2` (stereo not given), the RP-LC retention time is 899 s.

The compound `CCc1ccccc1NC(=O)Cn1c(N2CCCC2)nc(C)cc1=O` gave an RP-LC retention time of 659 s.

`CCCCc1c(C)n(CC(=O)NCC2CCCO2)c2nc(-c3ccccc3)nn2c1=O` (stereo not given) displayed an RP-LC retention time of 831 s.

The compound `CCc1cc(=O)n(CC(=O)Nc2ccc(F)cc2)c(N2CCOCC2)n1` had an RP-LC retention time of 714 s.

Turning to `COc1ccc(-c2nnc(Cc3nc(-c4ccccc4)no3)o2)cc1OC`, the RP-LC retention time amounted to 949 s.

In turn, `COc1cccc(C(O)CN2CCN(c3ccccn3)CC2)c1` (stereo not given) registered an RP-LC retention time of 554 s.

`CCCC(O)c1nc2ccccc2n1CC(=O)N(c1ccccc1)C(C)C` (stereo not given) had an RP-LC retention time of 734 s.

`Cc1nc(-c2csc(S(=O)(=O)NC3CCCCCC3)c2)sc1C` had an RP-LC retention time of 1150 s.

Take `Cc1ccc(-c2noc(C3CC3)n2)cc1S(=O)(=O)N1CCC(C(=O)Nc2ncccc2C)CC1`: the RP-LC retention time is 768 s.

In turn, `Cc1ccc(-n2nnnc2CNC(=O)Nc2ccc3c(c2)OCO3)cc1C` came in with an RP-LC retention time of 734 s.

As to `CCn1ccc2c(cc(C(=O)Nc3cccc(C)c3C)n2C)c1=O`, the RP-LC retention time came to 736 s.

`O=C(Nc1ccccc1F)N1CCC(n2cnc3ccc(F)cc3c2=O)CC1`: the RP-LC retention time amounted to 743 s.

As for `Cn1c(=O)c(N2CCC(NC(=O)NCCc3ccccc3)CC2)nc2ccccc21`, the RP-LC retention time was 857 s.

For `CCOc1ccc(CNS(=O)(=O)c2ccc3c(c2)CCCC(=O)N3)cc1`, the RP-LC retention time worked out at 744 s.

For `Cn1cc(C(CNS(=O)(=O)c2cnc[nH]2)c2cccnc2)c2ccccc21` (stereo not given), the RP-LC retention time was determined as 590 s.
